{"source": "PubChem BioAssay (NCI)", "tested_on": "P388 leukemia", "assay": "NCI tumour cell line growth inhibition, 48 h", "note": "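All cell lines were grown in 96-well plates and treated with compound for 48 hours. TGI is the concentration that stops growth completely.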"}
{"smiles": "C[C@H](N)C(=O)N[C@@H]1[C@H]2C(=C(O)C[C@@H](O)[C@@H]2O)C(=O)O[C@]1(C)C(Cl)Cl", "values": [{"measurement": "TGI", "value": 453, "unit": "nM"}]}
